Key:
Aurora2 (Aurora-A) = target: T1, Aurora2 (Aurora-A) (Homo sapiens, UniProt O14965); assay: Aurora 2 (Aurora A) kinase radioactivity scintillation assay using nickel chelate Flash plates; type: biochemical; conditions: 10 nM Aurora-A, 500 nM NuMA substrate, 1 μM ATP with [33P] ATP, 10 mM MgCl2, 30 minutes, 37° C.
T1 construct: Aurora-A: the full length recombinant protein including an N-terminal poly-histidine tail has been expressed in E. coli; poly-histidine (N); made in house; host or cells: E. coli
T1 sequence (O14965 1-403): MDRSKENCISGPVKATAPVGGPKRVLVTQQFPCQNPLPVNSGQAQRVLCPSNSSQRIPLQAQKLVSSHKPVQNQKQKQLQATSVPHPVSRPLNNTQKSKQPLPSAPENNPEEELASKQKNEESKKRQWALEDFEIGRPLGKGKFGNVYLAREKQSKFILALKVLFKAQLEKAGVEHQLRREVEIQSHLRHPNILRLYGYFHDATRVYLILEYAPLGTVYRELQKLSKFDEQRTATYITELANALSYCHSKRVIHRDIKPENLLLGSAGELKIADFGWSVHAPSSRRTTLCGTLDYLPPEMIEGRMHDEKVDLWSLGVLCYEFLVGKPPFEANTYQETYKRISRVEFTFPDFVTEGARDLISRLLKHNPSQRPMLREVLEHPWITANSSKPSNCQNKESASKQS
Procedure, shortened: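 10 nM Aurora-B or Aurora-A with 500 nM NuMA-His substrate, 1 μM ATP plus [³³P]ATP, in 50 mM NaCl, 1 mM DTT and 5 mM (B) or 10 mM (A) MgCl2, 30 min at 37° C on nickel-chelate plates. Incorporated ³³P counted after washing, background-subtracted; IC50 fitted from % inhibition versus concentration.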

Aurora1 (Aurora-B) = target: T2, Aurora1 (Aurora-B) (Homo sapiens, UniProt Q96GD4); assay: Aurora 1 (Aurora B) kinase radioactivity scintillation assay using nickel chelate Flash plates; type: biochemical; conditions: 10 nM Aurora-B (co expressed with C3 fragment of INCEP), 500 nM NuMA substrate, 1 μM ATP with [33P] ATP, 5 mM MgCl2, 30 minutes, 37° C.
T2 construct: Aurora-B: the full length protein (His tagged in N-terminal) has been co expressed in SF9 cells; poly-histidine (N); made in house; host or cells: SF9 cells
Description: Aurora 1 and 2 (Respectively. Aurora B and A)
The inhibitory effect of compounds with respect to the Aurora 1 and 2 kinases is determined with a radioactivity scintillation assay using nickel chelate.
The kinase activity of Aurora is measured by the phosphorylation of NuMA-histidine substrate in the presence of radiolabelled ATP ([^33P] ATP) using 96 well Flash plates where the nickel-chelate is linked to the surface of the microplate. The amount of ^33P incorporated to the substrate NuMA is proportional to the aurora activity.
The Flash plates used are nickel-chelate 96 well plates (Perkin Elmer, model SMP107).
The products to be evaluated are incubated in a 100 μl reaction volume per well in the presence of 10 nM of Aurora-B or Aurora-A, 500 nM of NuMA substrate in the following buffer: 50 mM of NaCl, 5 mM MgCl2, (Aurora-B) or 10 mM MgCl2 (Aurora-A) and 1 mM of DTT at 37° C.
80 μL of enzyme/substrate incubation buffer is distributed in each well, followed by 10 μL of solution of compound to be measured with various concentrations. The reaction is started by adding 1 μM of ATP (final concentration) containing 0.2 μCi of [^33P] ATP (10 μL). After 30 minutes of incubation the reaction is stopped by removal of the reaction mixture and each well is washed twice with 300 μl of buffer Tris/HCl. The radioactivity is measured in each well using a Packard Top count scintillation counter instrument.
The enzymatic activity is expressed as counts per minute obtained in 30 minutes after subtraction of the background noise (reaction medium without enzyme). The measurement is expressed as percentage of inhibition of Aurora activity versus the control. To generate IC50 values, compounds of the invention are tested at different concentration and the percentage of inhibition are plotted as function of compound concentration, IC50s are calculated using the Xlfit 4 curve fitting software.

T2 sequence (Q96GD4 whole entry, species assumed, the tested form may be a part): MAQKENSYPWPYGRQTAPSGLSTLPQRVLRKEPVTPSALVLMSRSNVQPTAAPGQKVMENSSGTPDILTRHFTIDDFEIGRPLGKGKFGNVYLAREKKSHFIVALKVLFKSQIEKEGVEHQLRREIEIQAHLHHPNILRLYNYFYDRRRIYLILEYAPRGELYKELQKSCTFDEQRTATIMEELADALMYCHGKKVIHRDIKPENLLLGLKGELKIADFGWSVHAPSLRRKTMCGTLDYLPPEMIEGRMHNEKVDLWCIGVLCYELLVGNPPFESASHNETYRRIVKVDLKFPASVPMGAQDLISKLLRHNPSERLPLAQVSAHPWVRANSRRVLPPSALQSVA
T2 sequence (Q9NQS7 821-918 partner limits assumed, species assumed): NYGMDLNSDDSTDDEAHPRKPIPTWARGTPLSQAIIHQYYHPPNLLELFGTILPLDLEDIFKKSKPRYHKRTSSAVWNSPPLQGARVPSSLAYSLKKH

COc1ccc2[nH]c(Sc3ccc(C4C5=C(CCCC5=O)Nc5n[nH]cc54)o3)nc2c1 (stereo not drawn) [Example 79, 4-[5-(5-Methoxy-1H-benzimidazol-2-ylsulfanyl)-furan-2-yl]-2,4,6,7,8,9-hexahydro-pyrazolo[3,4-b]quinolin-5-one; compound with trifluoro-acetic acid]
IC50 (Aurora2 (Aurora-A)): 70 nM
IC50 (Aurora1 (Aurora-B)): 15 nM

COc1ccc2[nH]c(Sc3ccc(C4C5=C(CNCC5=O)Nc5n[nH]cc54)o3)nc2c1 (stereo not drawn) [Example 80, 4-[5-(5-Methoxy-1H-benzimidazol-2-ylsulfanyl)-furan-2-yl]-2,4,6,7,8,9-hexahydro-pyrazolo[3,4-b]-1,7-naphthyridin-5-one; compound with trifluoro-acetic acid]
IC50 (Aurora2 (Aurora-A)): 495 nM
IC50 (Aurora1 (Aurora-B)): 41 nM

COc1ccc2[nH]c(Sc3ccc(C4C5=C(CC(C)(C)CC5=O)Nc5n[nH]cc54)o3)nc2c1 (stereo not drawn) [Example 81, 4-[5-(5-Methoxy-1H-benzimidazol-2-ylsulfanyl)-furan-2-yl]-7,7-dimethyl-2,4,6,7,8,9-hexahydro-pyrazolo[3,4-b]quinolin-5-one]
IC50 (Aurora2 (Aurora-A)): 33 nM
IC50 (Aurora1 (Aurora-B)): 11 nM

Cn1c(Sc2ccc(C3C4=C(CCCC4=O)Nc4n[nH]cc43)o2)nc2ccccc21 (stereo not drawn) [Example 82, 4-[5-(1-Methyl-1H-benzimidazol-2-ylsulfanyl)-furan-2-yl]-2,4,6,7,8,9-hexahydro-pyrazolo[3,4-b]quinolin-5-one; compound with trifluoro-acetic acid]
IC50 (Aurora2 (Aurora-A)): 1340 nM
IC50 (Aurora1 (Aurora-B)): 150 nM

Cn1c(Sc2ccc(C3C4=C(CC(C)(C)CC4=O)Nc4n[nH]cc43)o2)nc2ccccc21 (stereo not drawn) [Example 84, 7,7-Dimethyl-4-[5-(1-methyl-1H-benzimidazol-2-ylsulfanyl)-furan-2-yl]-2,4,6,7,8,9-hexahydro-pyrazolo[3,4-b]quinoline-5-one]
IC50 (Aurora2 (Aurora-A)): 947 nM
IC50 (Aurora1 (Aurora-B)): 177 nM

O=C1CCCC2=C1C(c1ccc(Sc3nc4cc(Cl)c(Cl)cc4[nH]3)o1)c1c[nH]nc1N2 (stereo not drawn) [Example 85, 4-[5-(5,6-Dichloro-1H-benzimidazol-2-ylsulfanyl)-furan-2-yl]-2,4,6,7,8,9-hexahydro-pyrazolo[3,4-b]quinolin-5-one; compound with trifluoro-acetic acid]
IC50 (Aurora2 (Aurora-A)): 22 nM
IC50 (Aurora1 (Aurora-B)): 9 nM

O=C1CNCC2=C1C(c1ccc(Sc3nc4cc(Cl)c(Cl)cc4[nH]3)o1)c1c[nH]nc1N2 (stereo not drawn) [Example 86, 4-[5-(5,6-Dichloro-1H-benzoimidazol-2-ylsulfanyl)-furan-2-yl]-2,4,6,7,8,9-hexahydro-pyrazolo[3,4-b]-1,7-naphthyridin-5-one; compound with trifluoro-acetic acid]
IC50 (Aurora2 (Aurora-A)): 82 nM
IC50 (Aurora1 (Aurora-B)): 17 nM

CC1(C)CC(=O)C2=C(C1)Nc1n[nH]cc1C2c1ccc(Sc2nc3cc(Cl)c(Cl)cc3[nH]2)o1 (stereo not drawn) [Example 87, 4-[5-(5,6-Dichloro-1H-benzoimidazol-2-ylsulfanyl)-furan-2-yl]-7,7-dimethyl-2,4,6,7,8,9-hexahydro-pyrazolo[3,4-b]quinolin-5-one]
IC50 (Aurora2 (Aurora-A)): 22 nM
IC50 (Aurora1 (Aurora-B)): 8 nM

O=C1CCCC2=C1C(c1ccc(Sc3nc4cc(Cl)ccc4o3)o1)c1c[nH]nc1N2 (stereo not drawn) [Example 88, 4-[5-(5-Chloro-benzoxazol-2-ylsulfanyl)-furan-2-yl]-2,4,6,7,8,9-hexahydro-pyrazolo[3,4-b]quinolin-5-one; compound with trifluoro-acetic acid]
IC50 (Aurora2 (Aurora-A)): 362 nM
IC50 (Aurora1 (Aurora-B)): 91 nM

CCOC(=O)c1[nH]cc2c1NC1=C(C(=O)CCC1)C2c1ccc(Sc2nc3cc(O)ccc3[nH]2)o1 (stereo not drawn) [Example 89, 9-[5-(5-Hydroxy-1H-benzoimidazol-2-ylsulfanyl)-furan-2-yl]-8-oxo-4,5,6,7,8,9-hexahydro-2H-pyrrolo[3,4-b]quinoline-3-carboxylic acid ethyl ester]
IC50 (Aurora2 (Aurora-A)): 355 nM
IC50 (Aurora1 (Aurora-B)): 31 nM

CC1(C)CC(=O)C2=C(C1)Nc1n[nH]cc1C2c1ccc(Sc2nc3cc(Cl)ccc3o2)o1 (stereo not drawn) [Example 90, 4-[5-(5-Chloro-benzoxazol-2-ylsulfanyl)-furan-2-yl]-7,7-dimethyl-2,4,6,7,8,9-hexahydro-pyrazolo[3,4-b]quinoline-5-one]
IC50 (Aurora2 (Aurora-A)): 670 nM
IC50 (Aurora1 (Aurora-B)): 194 nM

Cc1c[nH]c(Sc2ccc(C3C4=C(CC(C)(C)CC4=O)Nc4n[nH]cc43)o2)n1 (stereo not drawn) [Example 91, 7,7-Dimethyl-4-[5-(4-methyl-1H-imidazol-2-ylsulfanyl)-furan-2-yl]-2,4,6,7,8,9-hexahydro-pyrazolo[3,4-b]quinolin-5-one; compound with trifluoro-acetic acid]
IC50 (Aurora2 (Aurora-A)): 156 nM
IC50 (Aurora1 (Aurora-B)): 86 nM

Cn1c(-c2ccc(Cl)cc2)cnc1Sc1ccc(C2C3=C(CCCC3=O)Nc3n[nH]cc32)o1 (stereo not drawn) [Example 92, 4-{5-[5-(4-Chloro-phenyl)-1-methyl-1H-imidazol-2-ylsulfanyl]-furan-2-yl}-2,4,6,7,8,9-hexahydro-pyrazolo[3,4-b]quinolin-5-one]
IC50 (Aurora2 (Aurora-A)): 2090 nM
IC50 (Aurora1 (Aurora-B)): 233 nM

Cn1c(-c2ccc(Cl)cc2)cnc1Sc1ccc(C2C3=C(CC(C)(C)CC3=O)Nc3n[nH]cc32)o1 (stereo not drawn) [Example 93, 4-{5-[5-(4-Chloro-phenyl)-1-methyl-1H-imidazol-2-ylsulfanyl]-furan-2-yl}-7,7-dimethyl-2,4,6,7,8,9-hexahydro-pyrazolo[3,4-b]quinolin-5-one]
IC50 (Aurora2 (Aurora-A)): 1360 nM
IC50 (Aurora1 (Aurora-B)): 156 nM

Cn1c(-c2ccc(Cl)cc2)cnc1Sc1ccc(C2C3=C(CNCC3=O)Nc3n[nH]cc32)o1 (stereo not drawn) [Example 94, 4-{5-[5-(4-Chloro-phenyl)-1-methyl-1H-imidazol-2-ylsulfanyl]-furan-2-yl}-2,4,6,7,8,9-hexahydro-pyrazolo[3,4-b]-1,7-naphthyridin-5-one; compound with trifluoro-acetic acid]
IC50 (Aurora2 (Aurora-A)): 9810 nM
IC50 (Aurora1 (Aurora-B)): 1220 nM

O=C1CCCC2=C1C(c1ccc(Sc3nc4cc(C(F)(F)F)ccc4[nH]3)o1)c1cn[nH]c1N2 (stereo not drawn) [Example 95, 4-[5-(5-Trifluoromethyl-1H-benzimidazol-2-ylsulfanyl)-furan-2-yl]-1,4,6,7,8,9-hexahydro-pyrazolo[3,4-b]quinolin-5-one]
IC50 (Aurora2 (Aurora-A)): 61 nM
IC50 (Aurora1 (Aurora-B)): 9 nM

CC1(C)CC(=O)C2=C(C1)Nc1n[nH]cc1C2c1ccc(Sc2nc3cc(C(F)(F)F)ccc3[nH]2)o1 (stereo not drawn) [Example 96, 4-[5-(5-Trifluoromethyl-1H-benzoimidazol-2-ylsulfanyl)-furan-2-yl]-7,7-dimethyl-2,4,6,7,8,9-hexahydro-pyrazolo[3,4-b]quinolin-5-one]
IC50 (Aurora2 (Aurora-A)): 58 nM
IC50 (Aurora1 (Aurora-B)): 23 nM

O=C1CNCC2=C1C(c1ccc(Sc3nc4cc(C(F)(F)F)ccc4[nH]3)o1)c1c[nH]nc1N2 (stereo not drawn) [Example 97]
IC50 (Aurora2 (Aurora-A)): 292 nM
IC50 (Aurora1 (Aurora-B)): 47 nM

Cc1nc(Sc2ccc(C3C4=C(CCCC4=O)Nc4n[nH]cc43)o2)[nH]c1C (stereo not drawn) [Example 98, 4-[5-(4,5-Dimethyl-1H-imidazol-2-ylsulfanyl)-furan-2-yl]-2,4,6,7,8,9-hexahydro-pyrazolo[3,4-b]quinolin-5-one]
IC50 (Aurora2 (Aurora-A)): 338 nM
IC50 (Aurora1 (Aurora-B)): 231 nM

Cc1nc(Sc2ccc(C3C4=C(CC(C)(C)CC4=O)Nc4n[nH]cc43)o2)[nH]c1C (stereo not drawn) [Example 99, 4-[5-(4,5-Dimethyl-1H-imidazol-2-ylsulfanyl)-furan-2-yl]-7,7-dimethyl-2,4,6,7,8,9-hexahydro-pyrazolo[3,4-b]quinolin-5-one]
IC50 (Aurora2 (Aurora-A)): 135 nM
IC50 (Aurora1 (Aurora-B)): 124 nM

Cc1nc(Sc2ccc(C3C4=C(CNCC4=O)Nc4n[nH]cc43)o2)[nH]c1C (stereo not drawn) [Example 100, 4-[5-(4,5-Dimethyl-1H-imidazol-2-ylsulfanyl)-furan-2-yl]-2,4,6,7,8,9-hexahydro-pyrazolo[3,4-b]-1,7-naphthyridin-5-one; compound with trifluoro-acetic acid]
IC50 (Aurora2 (Aurora-A)): 5440 nM
IC50 (Aurora1 (Aurora-B)): 5430 nM
